According to US8404683B2, “Inhibitors of the interaction between MDM2 and P53” (Janssen Pharmaceutical N.V., priority 2004, dated 2013):

System: U87MG cells
Experiment: Proliferation assay (MTT-based) on U87MG tumour cells
Details: Homo sapiens, U-87 MG, 96 h, 4 days of incubation, negative log value of the IC50-value, read-out: cell proliferation pIC50 (converted)
Protocol: U87MG cells are human glioblastoma cells with wild type p53. In this cell line MDM2 tightly controls p53 expression.
Cellular activity of the compounds of formula (I) was determined on U87MG tumour cells using a colorimetric assay for cell toxicity or survival (see example C.2).
All compounds tested were dissolved in DMSO and further dilutions were made in culture medium. Final DMSO concentrations never exceeded 0.1% (v/v) in cell proliferation assays. Controls contained U87MG cells and DMSO without compound and blanks contained DMSO but no cells.
U87MG cells were seeded in 96-well cell culture plates at 3000 cells/well/100 μl. 24 hours later, medium was changed and compound and/or solvent were added to a final volume of 200 μl. Following 4 days of incubation, medium was replaced by 200 μl fresh medium and cell growth was assessed using a MTT-based assay. Therefore, 25 μl of the MTT solution (0.5% MTT research grade from Serva in phosphate-buffered saline) was added to each well and the cells were further incubated for 2 hours at 37° C. The medium was then carefully aspirated and the blue MTT-formazan product was dissolved by adding to each well 25 μl 0.1 M glycin and 100 μl DMSO. The plates were shaken for another 10 min on a micro plate shaker before reading absorbance at 540 nm by a Biorad micro plate reader.
Within an experiment, the results for each experimental condition are the mean of 3 replicate wells. For initial screening purposes, compounds were tested at a single fixed concentration of 10^−5 M. For active compounds, the experiments were repeated to establish full concentration-response curves. For each experiment, controls (containing no drug) and a blank incubation (containing no cells or drugs) were run in parallel. The blank value was subtracted from all control and sample values. For each sample, the mean value for cell growth (in absorbance units) was expressed as a percentage of the mean value for cell growth of the control. When appropriate, IC50-values (concentration of the drug, needed to reduce cell growth to 50% of the control) were computed using probit analysis for graded data (Finney, D. J., Probit Analyses, 2nd Ed. Chapter 10, Graded Responses, Cambridge University Press, Cambridge 1962). Herein the effects of test compounds are expressed as pIC50 (the negative log value of the IC50-value) (see table F-2).

Structure (SMILES) | IC50 [µM]
O=C(NCCNCc1cc(Nc2ccc(NCCc3c[nH]c4ccccc34)cc2)ccn1)OCc1ccccc1 [Compound 92] | 3.16
NCCNCc1cc(Nc2ccc(NCCc3c[nH]c4ccccc34)cc2)ccn1 [Compound 93] | > 10
c1ccc2c(CCNc3ccc(Nc4ccnc(CNCCN5CCNCC5)c4)cc3)c[nH]c2c1 [Compound 95] | 7.94
COC(=O)CCNCc1cc(Nc2ccc(NCCc3c[nH]c4ccccc34)cc2)ccn1 [Compound 96] | > 10
O=C(O)CCNCc1cc(Nc2ccc(NCCc3c[nH]c4ccccc34)cc2)ccn1 [Compound 97] | > 10
COC(=O)COCc1cc(Nc2ccc(NCCc3c[nH]c4ccccc34)cc2)ccn1 [Compound 98] | 3.98
OCCOCc1cc(Nc2ccc(NCCc3c[nH]c4ccccc34)cc2)ccn1 [Compound 99] | 2.51
CC(NCCCCO)c1cc(Nc2ccc(NCCc3c[nH]c4ccccc34)cc2)ccn1 (stereo not drawn) [Compound 100] | 3.98
c1ccc(CC(CNc2ccc(Nc3ccncc3)cc2)c2c[nH]c3ccccc23)cc1 (stereo not drawn) [Compound 101] | 2.51
CC(C)(C)OC(=O)N(CCc1cn(C(=O)OC(C)(C)C)c2ccccc12)c1ccc(Nc2ccnc(Cl)c2)cc1 [Compound 102] | > 10
Clc1cc(Nc2ccc(NCCc3c[nH]c4ccccc34)cc2)ccn1 [Compound 103] | 3.98
CC(O)c1cc(Nc2ccc(NCCc3c[nH]c4ccccc34)cc2)ccn1 (stereo not drawn) [Compound 104] | 3.16
CC(=O)c1cc(Nc2ccc(NCCc3c[nH]c4ccccc34)cc2)ccn1 [Compound 105] | 7.94
Cc1noc(-c2cc(Nc3ccc(NCCc4c[nH]c5ccccc45)cc3)ccn2)n1 [Compound 106] | 1.58
COC(=O)c1cc(Nc2ccc(NCCc3c[nH]c4ccccc34)cc2)cc(C(=O)OC)n1 [Compound 109] | > 10
OC1CCc2c(Nc3ccc(NCCc4c[nH]c5ccccc45)cc3)ccnc21 (stereo not drawn) [Compound 110] | 0.01
O=C(C(Cc1c[nH]c2ccccc12)Nc1ccc(Nc2ccncc2)cc1)N1CCN(CCO)CC1 (stereo not drawn) [Compound 114] | > 10
O=C(C(Cc1c[nH]c2ccccc12)Nc1ccc(Nc2ccncc2)cc1)N1CCN(CCOCCO)CC1 (stereo not drawn) [Compound 116] | > 10
O=C(NCCCCCO)C(Cc1c[nH]c2ccccc12)Nc1ccc(Nc2ccncc2)cc1 (stereo not drawn) [Compound 118] | > 10
c1ccc2c(CCNc3ccc(Nc4ccnnc4)cc3)c[nH]c2c1 [Compound 119] | > 10
c1ccc2c(CNc3ccc(NCCc4c[nH]c5ccccc45)cc3)ccnc2c1 [Compound 120] | 5.01

Structure (SMILES) | IC50 [µM]
c1cncc(CNc2ccc(NCCc3c[nH]c4ccccc34)cc2)c1 [Compound 121] | > 10
OCc1cnccc1Nc1ccc(NCCc2c[nH]c3ccccc23)cc1 [Compound 123] | 5.01
COC(=O)c1cnccc1Nc1ccc(NCCc2c[nH]c3ccccc23)cc1 [Compound 124] | 5.01
Cc1cnccc1Cc1cnccc1Nc1ccc(NCCc2c[nH]c3ccccc23)cc1 [Compound 125] | 3.98
CCOC(=O)/C=C/c1cnccc1Nc1ccc(NCCc2c[nH]c3ccccc23)cc1 [Compound 126] | > 10
CCC(O)c1cnccc1Nc1ccc(NCCc2c[nH]c3ccccc23)cc1 (stereo not drawn) [Compound 127] | 7.94
CCC(O)(CC)c1cc(Nc2ccc(NCCc3c[nH]c4ccccc34)cc2)ccn1 [Compound 128] | 3.16
CS(=O)(=O)NCc1cc(Nc2ccc(NCCc3c[nH]c4ccccc34)cc2)ccn1 [Compound 129] | 2
O=C(NCc1cc(Nc2ccc(NCCc3c[nH]c4ccccc34)cc2)ccn1)C1CC1 [Compound 130] | 1.58
O=C(CCc1ccccc1)NCc1cc(Nc2ccc(NCCc3c[nH]c4ccccc34)cc2)ccn1 [Compound 131] | 2.51
CCC(=O)NCc1cc(Nc2ccc(NCCc3c[nH]c4ccccc34)cc2)ccn1 [Compound 132] | > 10
CCOCc1cc(Nc2ccc(NCCc3c[nH]c4ccccc34)cc2)ccn1 [Compound 134] | 1.26
OCc1cc(Nc2ccc(NCCc3c[nH]c4ccccc34)cc2)cc(CO)n1 [Compound 135] | 1
OC(c1cc(Nc2ccc(NCCc3c[nH]c4ccccc34)cc2)ccn1)C1CC1 (stereo not drawn) [Compound 136] | 2
CC(C)C(O)c1cc(Nc2ccc(NCCc3c[nH]c4ccccc34)cc2)ccn1 (stereo not drawn) [Compound 137] | 3.16
CC(C)(C)C(O)c1cc(Nc2ccc(NCCc3c[nH]c4ccccc34)cc2)ccn1 (stereo not drawn) [Compound 138] | 1.58
CCOc1cc(Nc2ccnc(C(C)(C)O)c2)ccc1NCCc1c[nH]c2cc(OC)ccc12 [Compound 139] | 2
CC(NCc1ccccc1)c1cc(Nc2ccc(NCCc3c[nH]c4ccccc34)cc2)ccn1 (stereo not drawn) [Compound 140] | 2.51
CC(N)c1cc(Nc2ccc(NCCc3c[nH]c4ccccc34)cc2)ccn1 (stereo not drawn) [Compound 141] | 3.98
CNC(C)c1cc(Nc2ccc(NCCc3c[nH]c4ccccc34)cc2)ccn1 (stereo not drawn) [Compound 142] | 3.16

The next lines start with the values.

IC50 [µM] | Structure (SMILES)
3.16 | CCNC(C)c1cc(Nc2ccc(NCCc3c[nH]c4ccccc34)cc2)ccn1 (stereo not drawn) [Compound 143]
3.16 | CC(NCCN1CCOCC1)c1cc(Nc2ccc(NCCc3c[nH]c4ccccc34)cc2)ccn1 (stereo not drawn) [Compound 144]
2.51 | CC(NCCc1ccccc1)c1cc(Nc2ccc(NCCc3c[nH]c4ccccc34)cc2)ccn1 (stereo not drawn) [Compound 145]
7.94 | COC(=O)CCNC(C)c1cc(Nc2ccc(NCCc3c[nH]c4ccccc34)cc2)ccn1 (stereo not drawn) [Compound 146]
5.01 | CC(NCCO)c1cc(Nc2ccc(NCCc3c[nH]c4ccccc34)cc2)ccn1 (stereo not drawn) [Compound 147]
3.16 | CC(NCCCc1ccccc1)c1cc(Nc2ccc(NCCc3c[nH]c4ccccc34)cc2)ccn1 (stereo not drawn) [Compound 148]
2 | CCOC(C)c1cc(Nc2ccc(NCCc3c[nH]c4ccccc34)cc2)ccn1 (stereo not drawn) [Compound 149]
3.16 | COC(C)c1cc(Nc2ccc(NCCc3c[nH]c4ccccc34)cc2)ccn1 (stereo not drawn) [Compound 150]
> 10 | CC(=O)OCc1cc(Nc2ccc(NCCc3c[nH]c4ccccc34)cc2)ccn1 [Compound 151]
10 | OCCNCc1cc(Nc2ccc(NCCc3c[nH]c4ccccc34)cc2)ccn1 [Compound 152]
2.51 | c1ccc2c(CCNc3ccc(Nc4ccnc(CNCCN5CCOCC5)c4)cc3)c[nH]c2c1 [Compound 153]
3.16 | CNCc1cc(Nc2ccc(NCCc3c[nH]c4ccccc34)cc2)ccn1 [Compound 154]
2 | CCNCc1cc(Nc2ccc(NCCc3c[nH]c4ccccc34)cc2)ccn1 [Compound 155]
3.16 | OCCCNCc1cc(Nc2ccc(NCCc3c[nH]c4ccccc34)cc2)ccn1 [Compound 156]
1.58 | N#CCNCc1cc(Nc2ccc(NCCc3c[nH]c4ccccc34)cc2)ccn1 [Compound 157]
> 10 | CN(C)Cc1cc(Nc2ccc(NCCc3c[nH]c4ccccc34)cc2)ccn1 [Compound 158]

IC50 [µM] | Structure (SMILES)
3.16 | c1ccc2c(CCNc3ccc(Nc4ccnc(CN5CCOCC5)c4)cc3)c[nH]c2c1 [Compound 159]
0.398 | CN1CCN(Cc2cc(Nc3ccc(NCCc4c[nH]c5ccccc45)cc3)ccn2)CC1 [Compound 160]
1 | CCN(CC)Cc1cc(Nc2ccc(NCCc3c[nH]c4ccccc34)cc2)ccn1 [Compound 161]
3.16 | N#CCCNCc1cc(Nc2ccc(NCCc3c[nH]c4ccccc34)cc2)ccn1 [Compound 162]
3.16 | c1ccc(CCNCc2cc(Nc3ccc(NCCc4c[nH]c5ccccc45)cc3)ccn2)cc1 [Compound 163]
2.51 | c1ccc(CCCNCc2cc(Nc3ccc(NCCc4c[nH]c5ccccc45)cc3)ccn2)cc1 [Compound 164]
5.01 | OCCCCNCc1cc(Nc2ccc(NCCc3c[nH]c4ccccc34)cc2)ccn1 [Compound 165]
> 10 | c1ccc2c(CCNc3ccc(Nc4ccnc(CNCCCN5CCOCC5)c4)cc3)c[nH]c2c1 [Compound 166]
3.98 | c1ccc(COCc2cc(Nc3ccc(NCCc4c[nH]c5ccccc45)cc3)ccn2)cc1 [Compound 167]
2 | c1ccc(CNCc2cc(Nc3ccc(NCCc4c[nH]c5ccccc45)cc3)ccn2)cc1 [Compound 168]
0.398 | COCCOCc1cc(Nc2ccc(NCCc3c[nH]c4ccccc34)cc2)ccn1 [Compound 169]
3.16 | c1ccc(CCCCNCc2cc(Nc3ccc(NCCc4c[nH]c5ccccc45)cc3)ccn2)cc1 [Compound 170]
> 10 | c1ccc(CCCOCc2cc(Nc3ccc(NCCc4c[nH]c5ccccc45)cc3)ccn2)cc1 [Compound 171]
> 10 | COC(=O)CCOCc1cc(Nc2ccc(NCCc3c[nH]c4ccccc34)cc2)ccn1 [Compound 172]
> 10 | O=c1cc(Nc2ccc(NCCc3c[nH]c4ccccc34)cc2)cc[nH]1 [Compound 173]
